From patent publication US20090137577A1, “HETEROCYCLIC COMPOUNDS” (Pfizer Inc., priority 2007, published 2009)
pEC50: −log10 of the molar value.

biological target: T1, mGluR2 receptor (metabotropic glutamate receptor 2) (Homo sapiens, UniProt Q14416); experiment: mGluR2 potentiator screen (FLIPR, EC10-EC20 glutamate challenge); type: cell-based; conditions: geometric mean; read-out: mGluR 2 EC50 (geometric mean);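 note: HEK cells stably expressing human mGluR2 with GL15 G protein, Fluo-4 calcium fluorescence read on FLIPR, compounds added before an EC10-EC20 glutamate challenge to detect potentiation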
T1 construct: expressed in transfected cells
T1 sequence (Q14416 19-872, species assumed): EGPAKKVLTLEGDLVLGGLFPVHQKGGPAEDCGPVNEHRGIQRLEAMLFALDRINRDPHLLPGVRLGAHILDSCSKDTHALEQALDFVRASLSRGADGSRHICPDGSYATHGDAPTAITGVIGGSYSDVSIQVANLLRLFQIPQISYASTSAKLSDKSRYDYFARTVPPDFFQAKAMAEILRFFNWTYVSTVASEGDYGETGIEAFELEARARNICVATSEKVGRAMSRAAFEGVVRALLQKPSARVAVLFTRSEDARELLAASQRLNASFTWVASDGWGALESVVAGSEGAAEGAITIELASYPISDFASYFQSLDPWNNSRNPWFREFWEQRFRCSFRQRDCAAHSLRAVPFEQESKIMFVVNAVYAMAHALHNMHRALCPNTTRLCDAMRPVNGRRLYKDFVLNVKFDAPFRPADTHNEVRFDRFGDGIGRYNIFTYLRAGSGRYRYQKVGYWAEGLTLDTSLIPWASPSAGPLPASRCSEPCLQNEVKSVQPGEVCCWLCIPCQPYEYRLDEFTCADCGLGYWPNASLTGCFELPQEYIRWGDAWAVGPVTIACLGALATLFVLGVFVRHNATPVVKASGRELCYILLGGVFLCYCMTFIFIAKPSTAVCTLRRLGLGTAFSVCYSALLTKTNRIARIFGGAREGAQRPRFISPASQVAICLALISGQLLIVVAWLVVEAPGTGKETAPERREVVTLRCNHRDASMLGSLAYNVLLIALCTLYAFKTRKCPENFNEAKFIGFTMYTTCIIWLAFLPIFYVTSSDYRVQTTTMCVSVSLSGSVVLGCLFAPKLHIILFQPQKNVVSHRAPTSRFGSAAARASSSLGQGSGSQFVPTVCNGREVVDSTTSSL

| pEC50 | Structure (SMILES) |
| --- | --- |
| 6.69 | C[C@@H]1CN(Cc2ccc(-c3ccc(C(F)(F)F)cc3F)nc2)C(=O)O1 [Example 258] |
| 6.19 | CC(Oc1ccc(CN2CC(c3ccncc3)OC2=O)cc1)C1CCCCC1 (centres unmarked) [Example 209] |
| 6.82 | CC1CN(Cc2ccc(OC(C)c3ccccc3)cc2)C(=O)O1 (centres unmarked) [Example 46] |
| 6.23 | Cc1c(COc2ccc(CN3CC(C)OC3=O)cc2)cnn1-c1ccccc1 (centres unmarked) [Example 128] |
| 7.25 | C[C@@H]1CN(Cc2ccc(-c3ccc(C(F)(F)F)cc3F)c(F)c2)C(=O)O1 [Example 292] |
| 6.51 | Cc1cc(CN2C[C@@H](C)OC2=O)ccc1OCc1ccc(C(F)(F)F)cc1 [Example 284, (5R)-5-Methyl-3-(3-methyl-4-{[4-(trifluoromethyl)benzyl]oxy}benzyl)-1,3-oxazolidin-2-one] |
| 6.16 | CC(Oc1ccc(CN2CCN(C(C)CC3CC3)CC2=O)cc1)C1CCCCC1 (centres unmarked) [Example 219] |
| 5.87 | C[C@@H]1CN(Cc2cnc(-c3cccc(F)c3F)c(F)c2)C(=O)O1 [Example 298, (5R)-3-{[6-(2,3-Difluorophenyl)-5-fluoropyridin-3-yl]methyl}-5-methyl-1,3-oxazolidin-2-one] |
| 6.86 | C[C@@H]1CN(Cc2ccc(Oc3ccc(F)cc3)cc2)C(=O)O1 [Example 179] |
| 6.93 | COc1cc(F)ccc1COc1ccc(CN2CC(C)OC2=O)cc1 (centres unmarked) [Example 147] |
| 6.06 | C[C@@H]1CN(Cc2ccc(OCc3ccc(C(F)(F)F)cc3F)c(F)c2)C(=O)O1 [Example 228, (5R)-3-(3-fluoro-4-{[2-fluoro-4-(trifluoromethyl)benzyl]oxy}benzyl)-5-methyl-1,3-oxazolidin-2-one] |
| > 7.40 | C[C@@H]1CN(Cc2ccc(-c3ccc(Cl)cc3Cl)cc2)C(=O)O1 [Example 273] |
| 6.78 | Cc1cc(CN2C[C@@H](C)OC2=O)ccc1-c1ccc(F)cc1F [Example 299, (5R)-3-[(2′,4′-Difluoro-2-methylbiphenyl-4-yl)methyl]-5-methyl-1,3-oxazolidin-2-one] |
| 7.45 | CC1CN(Cc2ccc(OCCCn3ccc4ccccc43)cc2)C(=O)O1 (centres unmarked) [Example 149] |
| 6.76 | C[C@@H]1CN(Cc2ccc(OCCC3CCCCC3)c(Cl)c2)C(=O)O1 [Example 287, (5R)-3-[3-chloro-4-(2-cyclohexylethoxy)benzyl]-5-methyl-1,3-oxazolidin-2-one] |
| 6.41 | O=C1OC[C@@H]2CCCC[C@@H]2N1Cc1ccc(OC2CCCCC2)cc1 [Example 41] |
| 7.38 | CC(Oc1ccc(CN2CC(c3cccnc3)OC2=O)cc1)C1CCCCC1 (centres unmarked) [Example 208] |
| 7.14 | CC1CN(Cc2ccc(OCc3ccc(F)cc3Cl)cc2)C(=O)O1 (centres unmarked) [Example 115] |
| > 7.46 | C[C@@H]1CN(Cc2ccc(-c3ccc(C(F)(F)F)cc3F)cc2)C(=O)O1 [Example 234] |
| 7.10 | CC1CN(Cc2ccc(O[C@H](C)c3ccccc3)cc2)C(=O)O1 (some centres unmarked) [Example 139] |
| 5.69 | CC(Oc1ccc(CN2C(=O)OC[C@@H]3CCCC[C@@H]32)cc1)C1CCCCC1 (some centres unmarked) [Example 37] |
| 7.47 | COc1ccc(-c2ccc(CN3C[C@@H](C)OC3=O)cc2)cc1F [Example 170] |
| 7.59 | CC1CN(Cc2ccc(OCC3CCCC3)cc2)C(=O)O1 (centres unmarked) [Example 90] |
| 5.90 | O=C1OCCCN1Cc1ccc(OCc2ccccc2)cc1 [Example 31] |
| 5.84 | Cc1ccc(Cl)cc1-c1ccc(CN2C[C@@H](C)OC2=O)cn1 [Example 259] |
| 5.89 | O=C1OC(c2ccccc2)CN1Cc1ccc(OCc2ccccn2)cc1 (centres unmarked) [Example 5] |

| pEC50 | Structure (SMILES) |
| --- | --- |
| 7.52 | C[C@@H]1CN(Cc2ccc(OCCCOc3ccc(F)cc3)cc2)C(=O)O1 [Example 206] |
| 6.90 | CC(Oc1ccc(CN2CC(c3ccccc3)OC2=O)cc1)C1CCCCC1 (centres unmarked) [Example 38] |
| 8.09 | CC(C)Oc1ccc(-c2ccc(CN3C[C@@H](C)OC3=O)cc2)c(F)c1 [Example 281] |
| 7.65 | CC1CN(Cc2ccc(O[C@H]3C[C@H]4CC[C@@H]3C4)cc2)C(=O)O1 (some centres unmarked) [Example 123] |
| 6.15 | CCCC(C)CN1CCN(Cc2ccc(OC(C)C3CCCCC3)cc2)C(=O)C1 (centres unmarked) [Example 214] |
| 7.44 | C[C@@H]1CN(Cc2ccc(/C=C/c3ccccc3)cc2)C(=O)O1 [Example 317, (5R)-5-methyl-3-{4-[(E)-2-phenylvinyl]benzyl}-1,3-oxazolidin-2-one] |
| 6.51 | CC1CN(Cc2ccc(OCc3ccc(F)c(F)c3)cc2)C(=O)O1 (centres unmarked) [Example 137] |
| 6.02 | Cc1cc(CN2C[C@@H](C)OC2=O)cc(C)c1OCc1ccccc1 [Example 184] |
| 6.82 | C[C@@H]1CN(Cc2ccc(-c3ccc(N4CCCC4)nc3)cc2)C(=O)O1 [Example 158] |
| 6.05 | CCCOc1ccc(CN2C(=O)O[C@H](c3ccccc3)[C@@H]2C)cc1 [Example 23] |
| 6.16 | O=C1OCCN1Cc1ccc(OCCC2CCCCC2)cc1 [Example 11] |
| 6.24 | CC(C)Oc1ccc(CN2CC(c3ccccc3)OC2=O)cc1 (centres unmarked) [Example 44] |
| > 7.55 | C[C@@H]1CN(Cc2ccc(-c3ccc(F)cc3F)cc2F)C(=O)O1 [Example 249, (5R)-5-methyl-3-[(2′,3,4′-trifluorobiphenyl-4-yl)methyl]-1,3-oxazolidin-2-one] |
| 7.50 | COc1cccc(F)c1-c1ccc(CN2C[C@@H](C)OC2=O)cc1 [Example 172] |
| > 7.63 | C[C@@H]1CN(Cc2ccc(-c3cccc(Cl)c3F)cc2)C(=O)O1 [Example 235] |
| 7.21 | C[C@@H]1CN(Cc2ccc(-c3ccc(C(F)(F)F)cc3)cc2)C(=O)O1 [Example 64, (5R)-5-methyl-3-{[4′-(trifluoromethyl)biphenyl-4-yl]methyl}-1,3-oxazolidin-2-one] |
| 6.89 | Cc1cc(F)ccc1-c1ccc(CN2C[C@@H](C)OC2=O)cc1F [Example 290] |
| 7.06 | CCOc1cccc(COc2ccc(CN3CC(C)OC3=O)cc2)c1 (centres unmarked) [Example 138] |
| > 7.81 | CC(C)Oc1ccc(-c2ccc(CN3C[C@@H](C)OC3=O)cc2)c(Cl)c1 [Example 280] |
| 7.39 | CC1CN(Cc2ccc(OC(C)Cc3ccccc3)cc2)C(=O)O1 (centres unmarked) [Example 122] |
| 7.15 | Cc1cc(CN2C[C@@H](C)OC2=O)ccc1OCC1CCCCC1 [Example 254, (5R)-3-[4-(Cyclohexylmethoxy)-3-methylbenzyl]-5-methyl-1,3-oxazolidin-2-one] |
| 6.12 | CC(Oc1ccc(CN2CCN(C(C)C)CC2=O)cc1)C1CCCCC1 (centres unmarked) [Example 201] |
| 6.17 | CC(Oc1ccc(CN2CCN(CCCC(F)(F)F)CC2=O)cc1)C1CCCCC1 (centres unmarked) [Example 218] |
| 6.61 | COc1cc(COc2ccc(CN3CC(C)OC3=O)cc2)cc(OC)c1 (centres unmarked) [Example 113] |
| 6.12 | O=C1OC[C@@H]2CCCC[C@@H]2N1Cc1ccc(OCC2CCC2)cc1 [Example 1] |
| 7.46 | CC1CN(Cc2ccc(OCc3ccccc3Cl)cc2)C(=O)O1 (centres unmarked) [Example 117] |

| pEC50 | Structure (SMILES) |
| --- | --- |
| 7.03 | C[C@@H]1CN(Cc2ccc(-c3cccc(F)c3F)c(F)c2)C(=O)O1 [Example 289] |
| 6.78 | C[C@@H]1CN(Cc2ccc(-c3ccc(C#N)cc3)cc2)C(=O)O1 [Example 191] |
| 7.30 | C[C@@H]1CN(Cc2ccc(-c3ccc(Cl)cc3OC(F)(F)F)cc2)C(=O)O1 [Example 316] |
| 5.77 | COc1cc(COc2ccc(CN3CC(C)OC3=O)cc2)ccc1F (centres unmarked) [Example 127] |
| 6.09 | Cc1cc(C)n(-c2cccc(-c3ccc(CN4C[C@@H](C)OC4=O)cc3)c2)n1 [Example 199] |
| 6.25 | COc1ccc(Cl)cc1-c1ccc(CN2C[C@@H](C)OC2=O)cn1 [Example 266] |
| 6.01 | CC(C)COc1ccc(CN2CC(C)OC2=O)cc1 (centres unmarked) [Example 20] |
| 5.94 | CC1CN(Cc2ccc(OCCCc3cccnc3)cc2)C(=O)O1 (centres unmarked) [Example 120] |
| 6.18 | C[C@H]1[C@@H](c2ccccc2)OC(=O)N1Cc1ccc(OCC2CCC2)cc1 [Example 24] |
| 7.37 | C[C@@H]1CN(Cc2ccc(-c3ccc4c(c3)OCCO4)cc2)C(=O)O1 [Example 198] |
| 5.86 | C[C@@H]1CN(Cc2ccc3c(c2)CCC(C)(C)O3)C(=O)O1 [Example 87, (5R)-3-[(2,2-Dimethyl-3,4-dihydro-2H-chromen-6-yl)methyl]-5-methyl-1,3-oxazolidin-2-one] |
| 5.86 | COc1ccc(F)c(F)c1-c1ccc(CN2C[C@@H](C)OC2=O)cn1 [Example 263] |
| 6.95 | C[C@@H]1CN(Cc2ccc(CCc3ccccc3)cc2)C(=O)O1 [Example 318, (5R)-5-methyl-3-[4-(2-phenylethyl)benzyl]-1,3-oxazolidin-2-one] |
| 7.59 | CCOc1ccccc1COc1ccc(CN2CC(C)OC2=O)cc1 (centres unmarked) [Example 114] |
| 5.94 | C[C@H]1[C@@H](c2ccccc2)OC(=O)N1Cc1ccc(OCC2CCCCC2)cc1 [Example 27] |
| 6.16 | CC1(C)COC(=O)N(Cc2ccc(OCC3CCCCC3)cc2)C1 [Example 17] |
| 6.75 | CC1CN(Cc2ccc(OCC3CCC3)cc2)C(=O)O1 (centres unmarked) [Example 14] |
| 6.09 | CC1(C)COC(=O)N(Cc2ccc(OCc3ccccc3)cc2)C1 [Example 21] |
| 6.95 | C[C@@H]1CN(Cc2ccc(-c3ccc(Cl)c(F)c3)cc2)C(=O)O1 [Example 237] |
| 6.24 | O=C1OC(c2ccccc2)CN1Cc1ccc(OC2CCOCC2)cc1 (centres unmarked) [Example 36] |
| 6.79 | CCOc1ccc(COc2ccc(CN3CC(C)OC3=O)cc2)cc1 (centres unmarked) [Example 119] |
| 6.28 | Cc1ccc(C)n1-c1ccc(CN2C[C@@H](C)OC2=O)cc1 [Example 178, (5R)-3-[4-(2,5-dimethyl-1H-pyrrol-1-yl)benzyl]-5-methyl-1,3-oxazolidin-2-one] |
| 5.79 | CC(C)N1Cc2ccc(-c3ccc(CN4C[C@@H](C)OC4=O)cc3)cc2C1 [Example 174] |
| 6.23 | CC(Oc1ccc(CN2CCN(CC(C)(C)C)CC2=O)cc1)C1CCCCC1 (centres unmarked) [Example 223] |
| 6.49 | CC(C1CCC1)N1CCN(Cc2ccc(-c3ccc(F)cc3F)cc2)C(=O)C1 (centres unmarked) [Example 306, 4-(1-Cyclobutylethyl)-1-[(2′,4′-difluorobiphenyl-4-yl)methyl]piperazin-2-one] |
